Results from patent publication US10336730B2, “Substituted glycine derived FXIA inhibitors” (BRISTOL-MYERS SQUIBB COMPANY, priority 2015, dated 2019).
pKi: −log10 of the molar value.

What follows are compounds tested against T1, purified human Factor XIa (Homo sapiens, UniProt P03951) (assay: Factor XIa enzyme inhibition assay (chromogenic substrate S-2366), Ki). Settings: substrate S-2366, pH 7.4.
T1 construct: purchased Haematologic Technologies
Type: biochemical
Method in brief: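 Purified human Factor XIa ([…] final) with chromogenic substrate S-2366 (0.0002-0.001 M) in 50 mM HEPES pH 7.4, 145 mM NaCl, 5 mM KCl, 0.1% PEG 8000. Velocities measured over 20-180 minutes with and without inhibitor; Ki derived assuming competitive inhibition, e.g. Ki=IC50/(1+S/Km).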

T1 sequence (P03951 388-625 limits assumed): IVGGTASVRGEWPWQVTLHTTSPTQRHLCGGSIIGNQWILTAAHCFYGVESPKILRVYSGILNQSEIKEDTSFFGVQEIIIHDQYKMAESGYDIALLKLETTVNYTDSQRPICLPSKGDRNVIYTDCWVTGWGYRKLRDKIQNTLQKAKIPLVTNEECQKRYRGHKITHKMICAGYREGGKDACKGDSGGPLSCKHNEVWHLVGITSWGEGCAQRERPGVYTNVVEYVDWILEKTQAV
T1 sequence (P03951 19-387 partner limits assumed): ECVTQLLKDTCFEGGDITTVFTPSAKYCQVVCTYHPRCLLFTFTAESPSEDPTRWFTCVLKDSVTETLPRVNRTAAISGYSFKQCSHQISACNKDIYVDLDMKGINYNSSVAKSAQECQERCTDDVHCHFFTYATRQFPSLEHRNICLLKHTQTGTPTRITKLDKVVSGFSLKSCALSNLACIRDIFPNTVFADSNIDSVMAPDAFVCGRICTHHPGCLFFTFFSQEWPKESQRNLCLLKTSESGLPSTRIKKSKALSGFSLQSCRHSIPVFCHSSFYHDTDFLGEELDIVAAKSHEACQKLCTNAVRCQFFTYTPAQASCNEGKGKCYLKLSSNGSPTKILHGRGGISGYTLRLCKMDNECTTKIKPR

Question: How did the pKi turn out when `COC(=O)Cn1cc(NC(=O)[C@H](Cc2ccccc2)n2cnc(-c3cc(Cl)ccc3-n3cc(Cl)nn3)cc2=O)cn1` [Example 10, Methyl 2-{4-[(2S)-2-{4-[5-chloro-2-(4-chloro-1H-1,2,3-triazol-1-yl)phenyl]-6-oxo-1,6-dihydropyrimidin-1-yl}-3-phenylpropanamido]-1H-pyrazol-1-yl}acetate] was run?
Answer: Its pKi is 6.98.

Question: `O=C(Nc1nnc(C2CCC2)[nH]1)[C@H](Cc1ccccc1)n1cnc(-c2cc(Cl)ccc2-n2cc(Cl)nn2)cc1=O` [Example 110, (S)-2-(4-(5-chloro-2-(4-chloro-1H-1,2,3-triazol-1-yl)phenyl)-6-oxopyrimidin-1(6H)-yl)-N-(5-cyclobutyl-4H-1,2,4-triazol-3-yl)-3-phenylpropanamide] was tested. Which pKi did it give?
Answer: The pKi was 6.59.

Question: How did the pKi turn out when `NC(=O)c1ccc(NC(=O)[C@H](Cc2ccccc2)n2cnc(-c3cc(Cl)ccc3-n3cc(Cl)nn3)cc2=O)nc1` [Example 111, (S)-6-(2-(4-(5-chloro-2-(4-chloro-1H-1,2,3-triazol-1-yl)phenyl)-6-oxopyrimidin-1(6H)-yl)-3-phenylpropanamido)nicotinamide] was run?
Answer: Its pKi is 6.98.

Question: With `N=C(N)c1ccc(NC(=O)[C@H](Cc2ccccc2)n2cnc(-c3cc(Cl)ccc3-n3cc(Cl)nn3)cc2=O)cc1` [Example 112, (S)-N-(4-carbamimidoylphenyl)-2-(4-(5-chloro-2-(4-chloro-1H-1,2,3-triazol-1-yl)phenyl)-6-oxopyrimidin-1(6H)-yl)-3-phenylpropanamide] as the compound, how does the pKi read?
Answer: Its pKi is 6.56.

Question: How did the pKi turn out when `Cc1ccc2c(NC(=O)[C@H](Cc3ccccc3)n3cnc(-c4cc(Cl)ccc4-n4cc(Cl)nn4)cc3=O)noc2c1` [Example 113, (S)-2-(4-(5-chloro-2-(4-chloro-1H-1,2,3-triazol-1-yl)phenyl)-6-oxopyrimidin-1(6H)-yl)-N-(6-methylbenzo[d]isoxazol-3-yl)-3-phenylpropanamide] was run?
Answer: Its pKi is 7.13.

Question: `O=C(Nc1noc2cc(Br)ccc12)[C@H](Cc1ccccc1)n1cnc(-c2cc(Cl)ccc2-n2cc(Cl)nn2)cc1=O` [Example 114, (S)-N-(6-bromobenzo[d]isoxazol-3-yl)-2-(4-(5-chloro-2-(4-chloro-1H-1,2,3-triazol-1-yl)phenyl)-6-oxopyrimidin-1(6H)-yl)-3-phenylpropanamide] was tested. Which pKi did it give?
Answer: The pKi was 6.47.

Question: `O=C(Nc1noc2c(Cl)cccc12)[C@H](Cc1ccccc1)n1cnc(-c2cc(Cl)ccc2-n2cc(Cl)nn2)cc1=O` [Example 115, (S)-2-(4-(5-chloro-2-(4-chloro-1H-1,2,3-triazol-1-yl)phenyl)-6-oxopyrimidin-1(6H)-yl)-N-(7-chlorobenzo[d]isoxazol-3-yl)-3-phenylpropanamide] was tested. Which pKi did it give?
Answer: The pKi was 6.52.

Question: With `Cc1nc2ccc(CNC(=O)[C@H](Cc3ccccc3)n3cnc(-c4cc(Cl)ccc4-n4cc(Cl)nn4)cc3=O)cc2[nH]1` [Example 116, (S)-2-(4-(5-chloro-2-(4-chloro-1H-1,2,3-triazol-1-yl)phenyl)-6-oxopyrimidin-1(6H)-yl)-N-((2-methyl-1H-benzo[d]imidazol-6-yl)methyl)-3-phenylpropanamide] as the compound, how does the pKi read?
Answer: The pKi was 6.33.

Question: `O=C1NCc2ccc(NC(=O)[C@H](Cc3ccccc3)n3cnc(-c4cc(Cl)ccc4-n4cc(Cl)nn4)cc3=O)cc21` [Example 117, (S)-2-(4-(5-chloro-2-(4-chloro-1H-1,2,3-triazol-1-yl)phenyl)-6-oxopyrimidin-1(6H)-yl)-N-(3-oxoisoindolin-5-yl)-3-phenylpropanamide] was tested. Which pKi did it give?
Answer: Its pKi is 6.99.

Question: How did the pKi turn out when `NC(=O)c1ccc(NC(=O)[C@H](Cc2ccccc2)n2cnc(-c3cc(Cl)ccc3-n3cc(Cl)nn3)cc2=O)cc1` [Example 118, (S)-4-(2-(4-(5-chloro-2-(4-chloro-1H-1,2,3-triazol-1-yl)phenyl)-6-oxopyrimidin-1(6H)-yl)-3-phenylpropanamido)benzamide] was run?
Answer: The pKi was 7.48.

Question: `O=C(Nc1cnn(-c2ccc(Cl)cc2)c1)[C@H](Cc1ccccc1)n1cnc(-c2cc(Cl)ccc2-n2cc(Cl)nn2)cc1=O` [Example 119, (S)-2-(4-(5-chloro-2-(4-chloro-1H-1,2,3-triazol-1-yl)phenyl)-6-oxopyrimidin-1(6H)-yl)-N-(1-(4-chlorophenyl)-1H-pyrazol-4-yl)-3-phenylpropanamide] was tested. Which pKi did it give?
Answer: The pKi was 6.39.

Question: With `O=C(Nc1cnn(-c2ccccc2)c1)[C@H](Cc1ccccc1)n1cnc(-c2cc(Cl)ccc2-n2cc(Cl)nn2)cc1=O` [Example 120, (S)-2-(4-(5-chloro-2-(4-chloro-1H-1,2,3-triazol-1-yl)phenyl)-6-oxopyrimidin-1(6H)-yl)-3-phenyl-N-(1-phenyl-1H-pyrazol-4-yl)propanamide] as the compound, how does the pKi read?
Answer: The pKi was 6.26.

Question: How did the pKi turn out when `O=C(Nc1noc2ccccc12)[C@H](Cc1ccccc1)n1cnc(-c2cc(Cl)ccc2-n2cc(Cl)nn2)cc1=O` [Example 121, (S)-N-(benzo[d]isoxazol-3-yl)-2-(4-(5-chloro-2-(4-chloro-1H-1,2,3-triazol-1-yl)phenyl)-6-oxopyrimidin-1(6H)-yl)-3-phenylpropanamide] was run?
Answer: Its pKi is 6.80.

Question: With `O=C(Nc1n[nH]c2cccnc12)[C@H](Cc1ccccc1)n1cnc(-c2cc(Cl)ccc2-n2cc(Cl)nn2)cc1=O` [Example 122, (S)-2-(4-(5-chloro-2-(4-chloro-1H-1,2,3-triazol-1-yl)phenyl)-6-oxopyrimidin-1(6H)-yl)-3-phenyl-N-(1H-pyrazolo[4,3-b]pyridin-3-yl)propanamide] as the compound, how does the pKi read?
Answer: The pKi was 6.20.

Question: With `O=C(Nc1ccnc2ccc(C(F)(F)F)cc12)[C@H](Cc1ccccc1)n1cnc(-c2cc(Cl)ccc2-n2cc(Cl)nn2)cc1=O` [Example 123, (S)-2-(4-(5-chloro-2-(4-chloro-1H-1,2,3-triazol-1-yl)phenyl)-6-oxopyrimidin-1(6H)-yl)-3-phenyl-N-(6-(trifluoromethyl)quinolin-4-yl)propanamide] as the compound, how does the pKi read?
Answer: The pKi was 5.15.

Question: `O=C(Nc1ccnc2ccc(Cl)cc12)[C@H](Cc1ccccc1)n1cnc(-c2cc(Cl)ccc2-n2cc(Cl)nn2)cc1=O` [Example 124, (S)-2-(4-(5-chloro-2-(4-chloro-1H-1,2,3-triazol-1-yl)phenyl)-6-oxopyrimidin-1(6H)-yl)-N-(6-chloroquinolin-4-yl)-3-phenylpropanamide] was tested. Which pKi did it give?
Answer: The pKi was 5.15.

Question: `O=C(Nc1n[nH]c2ccccc12)[C@H](Cc1ccccc1)n1cnc(-c2cc(Cl)ccc2-n2cc(Cl)nn2)cc1=O` [Example 125, (S)-2-(4-(5-chloro-2-(4-chloro-1H-1,2,3-triazol-1-yl)phenyl)-6-oxopyrimidin-1(6H)-yl)-N-(1H-indazol-3-yl)-3-phenylpropanamide] was tested. Which pKi did it give?
Answer: The pKi was 7.17.

Question: With `O=C(Nc1ccnc2[nH]ncc12)[C@H](Cc1ccccc1)n1cnc(-c2cc(Cl)ccc2-n2cc(Cl)nn2)cc1=O` [Example 126, (S)-2-(4-(5-chloro-2-(4-chloro-1H-1,2,3-triazol-1-yl)phenyl)-6-oxopyrimidin-1(6H)-yl)-3-phenyl-N-(1H-pyrazolo[3,4-b]pyridin-4-yl)propanamide] as the compound, how does the pKi read?
Answer: Its pKi is 6.67.

Question: `O=C(NC1CCc2ccccc21)[C@H](Cc1ccccc1)n1cnc(-c2cc(Cl)ccc2-n2cc(Cl)nn2)cc1=O` (stereo partly drawn) [Example 127, (2S)-2-(4-(5-chloro-2-(4-chloro-1H-1,2,3-triazol-1-yl)phenyl)-6-oxopyrimidin-1(6H)-yl)-N-(2,3-dihydro-1H-inden-1-yl)-3-phenylpropanamide] was tested. Which pKi did it give?
Answer: The pKi was 6.08.

Question: `O=C(NC1COc2ccccc21)[C@H](Cc1ccccc1)n1cnc(-c2cc(Cl)ccc2-n2cc(Cl)nn2)cc1=O` (stereo partly drawn) [Example 128, (2S)-2-(4-(5-chloro-2-(4-chloro-1H-1,2,3-triazol-1-yl)phenyl)-6-oxopyrimidin-1(6H)-yl)-N-(2,3-dihydrobenzofuran-3-yl)-3-phenylpropanamide] was tested. Which pKi did it give?
Answer: The pKi was 6.08.

Question: How did the pKi turn out when `O=C(O)c1ccc(NC(=O)C(Cc2ccccc2)N2CCC(c3c(F)ccc(Cl)c3F)=CC2=O)cc1` (stereo not shown) [Example 129, 4-{2-[4-(3-Chloro-2,6-difluorophenyl)-6-oxo-1,2,3,6-tetrahydropyridin-1-yl]-3-phenylpropanamido}benzoic Acid] was run?
Answer: Its pKi is 7.11.

Question: `O=C(O)c1ccc(NC(=O)[C@H](Cc2ccccc2)N2CCC(c3cc(Cl)ccc3-n3ccnn3)=CC2=O)cc1` [Example 136, 4-[(2S)-2-{4-[5-chloro-2-(1H-1,2,3-triazol-1-yl)phenyl]-6-oxo-1,2,3,6-tetrahydropyridin-1-yl}-3-phenylpropanamido]benzoic Acid] was tested. Which pKi did it give?
Answer: Its pKi is 8.24.

Question: How did the pKi turn out when `O=C(O)c1ccc(NC(=O)[C@H](Cc2ccccc2)N2CCC(c3c(-n4ccnn4)ccc(Cl)c3F)=CC2=O)cc1` [Example 137, 4-[(2S)-2-{4-[3-chloro-2-fluoro-6-(1H-1,2,3-triazol-1-yl)phenyl]-6-oxo-1,2,3,6-tetrahydropyridin-1-yl}-3-phenylpropanamido]benzoic Acid] was run?
Answer: The pKi was 8.49.

Question: How did the pKi turn out when `O=C(O)c1ccc(NC(=O)[C@H](Cc2ccc(NC(=O)C3CC3)cc2)N2CCC(c3c(F)ccc(Cl)c3F)=CC2=O)cc1` [Example 140, (S)-4-(2-(4-(3-chloro-2,6-difluorophenyl)-6-oxo-3,6-dihydropyridin-1(2H)-yl)-3-(4-(cyclopropanecarboxamido)phenyl)propanamido)benzoic Acid] was run?
Answer: The pKi was 6.26.

What follows are compounds tested against T2, purified human plasma kallikrein (Homo sapiens, UniProt P03952) (assay: Plasma kallikrein enzyme inhibition assay (chromogenic substrate S-2302), Ki). Settings: substrate S-2302, pH 7.5.
T2 construct: purchased Enzyme Research Laboratories
Type: biochemical
Procedure: The effectiveness of compounds of the present invention as inhibitors of the coagulation Factors XIa, VIIa, IXa, Xa, XIIa, plasma kallikrein, thrombin, chemytrypsin or trypsin can be determined using a relevant purified serine protease, respectively, and an appropriate synthetic substrate. The rate of hydrolysis of the chromogenic or fluorogenic substrate by the relevant serine protease was measured both in the absence and presence of compounds of the present invention. […] A decrease in the rate of absorbance or fluorescence change in the presence of inhibitor is indicative of enzyme inhibition. Such methods are known to one skilled in the art. The results of this assay are expressed as the inhibitory constant, Ki.
Plasma kallikrein determinations were made in 0.1 M sodium phosphate buffer at a pH of 7.5 containing 0.1-0.2 M sodium chloride and 0.5% PEG 8000. Determinations were made using purified human plasma kallikrein (Enzyme Research Laboratories) at a final assay concentration of […] and the synthetic substrate S-2302 (H-(D)-Pro-Phe-Arg-pNA; CHROMOGENIX®) at a concentration of 0.00008-0.0004 M.
Values of Ki were determined by allowing the protease to react with the substrate in the presence of the inhibitor. Reactions were allowed to go for periods of 20-180 minutes (depending on the protease) and the velocities (rate of absorbance or fluorescence change versus time) were measured. The following relationships were used to calculate Ki values: (Vmax*S)/(Km+S) (vo−vs)/vs=I/(Ki*(1+S/Km)) for a competitive inhibitor with one binding site; or vs/vo=A+(B−A)/(1+(IC50/(I)^n)); and Ki=IC50/(1+S/Km) for a competitive inhibitor where: […]

T2 sequence (P03952 391-638 limits assumed): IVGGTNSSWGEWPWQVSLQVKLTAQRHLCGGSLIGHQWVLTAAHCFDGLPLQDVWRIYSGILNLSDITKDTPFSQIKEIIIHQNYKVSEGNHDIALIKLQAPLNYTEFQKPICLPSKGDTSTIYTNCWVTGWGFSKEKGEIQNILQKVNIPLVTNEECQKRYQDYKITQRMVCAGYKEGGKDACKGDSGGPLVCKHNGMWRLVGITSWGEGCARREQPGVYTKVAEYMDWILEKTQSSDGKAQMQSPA
T2 sequence (P03952 20-390 partner limits assumed): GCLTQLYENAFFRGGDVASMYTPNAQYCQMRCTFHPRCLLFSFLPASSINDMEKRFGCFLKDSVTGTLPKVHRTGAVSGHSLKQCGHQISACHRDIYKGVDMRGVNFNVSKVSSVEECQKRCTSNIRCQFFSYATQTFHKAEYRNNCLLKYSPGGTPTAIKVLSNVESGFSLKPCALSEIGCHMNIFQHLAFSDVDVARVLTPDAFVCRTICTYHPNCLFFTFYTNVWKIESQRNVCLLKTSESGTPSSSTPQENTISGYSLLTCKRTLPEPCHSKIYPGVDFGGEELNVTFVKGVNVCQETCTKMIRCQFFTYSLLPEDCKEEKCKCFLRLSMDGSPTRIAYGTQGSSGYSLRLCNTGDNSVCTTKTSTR

Question: How did the pKi turn out when `COC(=O)Cn1cc(NC(=O)[C@H](Cc2ccccc2)n2cnc(-c3cc(Cl)ccc3-n3cc(Cl)nn3)cc2=O)cn1` [Example 10, Methyl 2-{4-[(2S)-2-{4-[5-chloro-2-(4-chloro-1H-1,2,3-triazol-1-yl)phenyl]-6-oxo-1,6-dihydropyrimidin-1-yl}-3-phenylpropanamido]-1H-pyrazol-1-yl}acetate] was run?
Answer: Its pKi is 5.41.
